According to US8916567B2, “Certain crystalline hydrates, pharmaceutical compositions thereof and methods for preparation and use thereof” (Universal Technology Alliance, Inc., priority 2009, dated 2014):

Assay: Stability under high temperature and high humidity (relative humidity 75%, 40° C.)
Format: physicochemical
Experimental: In order to further evaluate the effect of temperature, humidity and light on the quality of the crystalline compounds of the present disclosure, the hydrates were placed in a dessicator with a relative humidity of 75% and at a constant temperature of 40° C. The samples were then collected at 1, 2, 3, and 6 months. Results are shown in Tables 10-14, wherein the “related substances” mean all of the ingredients in a sample except the active material. The content of the related substances in a sample was measure by HPLC in accordance to the Chinese Pharmacopeia (2005 edition, Part II, Appendix V D).

[1] = water content by TGA, 0 month, hydrate
[2] = water content by TGA, 1 month, hydrate
[3] = water content by TGA, 2 months, hydrate
[4] = water content by TGA, 3 months, hydrate
[5] = water content by TGA, 6 months, hydrate

CC(=O)NC[C@H]1CN(c2ccc(N3CCN(c4ccccc4)CC3)c(F)c2)C(=O)O1 [1/12 hydrate, (S)—[N-3-(3′-fluoro-4′-(4″-phenylpiperazinyl))phenyl-2-oxo-5-oxazolidinyl]methyl acetamide 1/12 hydrate]
Characters (0 month): White powder
Related substances (%) (0 month, HPLC): 0.94%
TGA (%) (0 month, hydrate): 0.40%
Characters (1 month): White powder
Related substances (%) (1 month, HPLC): 0.88%
TGA (%) (1 month, hydrate): 0.38%
Characters (2 months): White powder
Related substances (%) (2 months, HPLC): 0.90%
TGA (%) (2 months, hydrate): 0.39%
Characters (3 months): White powder
Related substances (%) (3 months, HPLC): 0.92%
TGA (%) (3 months, hydrate): 0.40%
Characters (6 months): White powder
Related substances (%) (6 months, HPLC): 0.93%
TGA (%) (6 months, hydrate): 0.42%

CC(=O)NC[C@H]1CN(c2ccc(N3CCN(c4ccccc4)CC3)c(F)c2)C(=O)O1 [2/7 hydrate, (S)—[N-3-(3′-fluoro-4′-(4″-phenylpiperazinyl))phenyl-2-oxo-5-oxazolidinyl]methyl acetamide 2/7 hydrate]
Characters (0 month): White powder
Characters (1 month): White powder
Characters (2 months): White powder
Characters (3 months): White powder
Characters (6 months): White powder
Related substances (%) (by HPLC, 0 month, hydrate): 0.91%
Related substances (%) (by HPLC, 1 month, hydrate): 0.89%
Related substances (%) (by HPLC, 2 months, hydrate): 0.90%
Related substances (%) (by HPLC, 3 months, hydrate): 0.91%
Related substances (%) (by HPLC, 6 months, hydrate): 0.95%
TGA (%) [1]: 1.20%
TGA (%) [2]: 1.21%
TGA (%) [3]: 1.19%
TGA (%) [4]: 1.23%
TGA (%) [5]: 1.21%

CC(=O)NC[C@H]1CN(c2ccc(N3CCN(c4ccccc4)CC3)c(F)c2)C(=O)O1 [3/4 hydrate, (S)—[N-3-(3′-fluoro-4′-(4″-phenylpiperazinyl))phenyl-2-oxo-5-oxazolidinyl]methyl acetamide 3/4 hydrate]
Characters (0 month): White powder
Related substances (%) (0 month, HPLC): 0.94%
TGA (%) (0 month, listed as ¾ hydrate, hydrate): 3.10%
Characters (1 month): White powder
Related substances (%) (1 month, HPLC): 0.88%
TGA (%) (1 month, listed as ¾ hydrate, hydrate): 3.11%
Characters (2 months): White powder
Related substances (%) (2 months, HPLC): 0.90%
TGA (%) (2 months, listed as ¾ hydrate, hydrate): 3.10%
Characters (3 months): White powder
Related substances (%) (3 months, HPLC): 0.92%
TGA (%) (3 months, listed as ¾ hydrate, hydrate): 3.09%
Characters (6 months): White powder
Related substances (%) (6 months, HPLC): 0.93%
TGA (%) (6 months, listed as ¾ hydrate, hydrate): 3.10%

CC(=O)NC[C@H]1CN(c2ccc(N3CCN(c4ccccc4)CC3)c(F)c2)C(=O)O1 [½ hydrate, (S)—[N-3-(3′-fluoro-4′-(4″-phenylpiperazinyl))phenyl-2-oxo-5-oxazolidinyl]methyl acetamide 1/2 hydrate]
Characters (0 month): White powder
Characters (1 month): White powder
Characters (2 months): White powder
Characters (3 months): White powder
Characters (6 months): White powder
Related substances (%) (by HPLC, 0 month, hydrate): 0.90%
Related substances (%) (by HPLC, 1 month, hydrate): 0.88%
Related substances (%) (by HPLC, 2 months, hydrate): 0.92%
Related substances (%) (by HPLC, 3 months, hydrate): 0.90%
Related substances (%) (by HPLC, 6 months, hydrate): 0.94%
TGA (%) [1]: 2.14%
TGA (%) [2]: 2.15%
TGA (%) [3]: 2.16%
TGA (%) [4]: 2.20%
TGA (%) [5]: 2.10%

CC(=O)NC[C@H]1CN(c2ccc(N3CCN(c4ccccc4)CC3)c(F)c2)C(=O)O1 [⅖ hydrate, (S)—[N-3-(3′-fluoro-4′-(4″-phenylpiperazinyl))phenyl-2-oxo-5-oxazolidinyl]methyl acetamide 2/5 hydrate]
Characters (0 month): White powder
Characters (1 month): White powder
Characters (2 months): White powder
Characters (3 months): White powder
Characters (6 months): White powder
Related substances (%) (by HPLC, 0 month, hydrate): 0.93%
Related substances (%) (by HPLC, 1 month, hydrate): 0.89%
Related substances (%) (by HPLC, 2 months, hydrate): 0.91%
Related substances (%) (by HPLC, 3 months, hydrate): 0.93%
Related substances (%) (by HPLC, 6 months, hydrate): 0.92%
TGA (%) [1]: 1.71%
TGA (%) [2]: 1.73%
TGA (%) [3]: 1.70%
TGA (%) [4]: 1.72%
TGA (%) [5]: 1.72%
